Assay results taken from the NIST ThermoML archive (doi:10.1021/je0600092).
Numbers after ± are expanded uncertainties.

Settings: 101.33 kPa, Liquid; for speed of sound: Light diffraction method; for thermal diffusivity: Optical interferometry

| SMILES | speed of sound (293.15 K) | thermal diffusivity (293.15 K) | speed of sound (298.15 K) | thermal diffusivity (298.15 K) |
| --- | --- | --- | --- | --- |
| CCCCn1cc[n+](C)c1.F[P-](F)(F)(F)(F)F [1-butyl-3-methylimidazolium hexafluorophosphate] | 1441 ± 11 m/s | 7.5e-08 ± 5e-09 m2/s | – | – |
| CCCCCC[n+]1ccn(C)c1.O=S(=O)([N-]S(=O)(=O)C(F)(F)F)C(F)(F)F | 1232 ± 11 m/s | 6.06e-08 ± 3.2e-09 m2/s | – | – |
| CCCCCCCCn1cc[n+](C)c1.O=S(=O)([N-]S(=O)(=O)C(F)(F)F)C(F)(F)F | 1232 ± 11 m/s | 6.1e-08 ± 5e-09 m2/s | – | – |
| CCCCn1cc[n+](C)c1.F[B-](F)(F)F [1-butyl-3-methylimidazolium tetrafluoroborate] | 1564 ± 10 m/s | 8.6e-08 ± 4e-09 m2/s | – | – |
| CCCC[n+]1ccn(C)c1.O=S(=O)([N-]S(=O)(=O)C(F)(F)F)C(F)(F)F | 1227 ± 13 m/s | 6e-08 ± 3e-09 m2/s | – | – |
| CCn1cc[n+](C)c1.O=S(=O)([N-]S(=O)(=O)C(F)(F)F)C(F)(F)F | 1240 ± 10 m/s | 6.01e-08 ± 2.9e-09 m2/s | – | – |
| CCCCCn1cc[n+](C)c1.O=S(=O)([N-]S(=O)(=O)C(F)(F)F)C(F)(F)F | – | – | 1227 ± 7 m/s | 5.8e-08 ± 3e-09 m2/s |
